Experimental data published in patent US20230192799A1, “CNP Variants and Conjugates Thereof” (BIOMARIN PHARMACEUTICAL INC., priority 2019, published 2023).
Numbered stars: 1 amine (or outer) side, 2 acyl side, 3 side chain; on linkers, the order of the positions; unused ones are H or OH. Bridge positions count the residues as written; N and C are the ends. Side chains are listed from the residue outwards. Peptide text beside a SMILES is read from it. * marks the point of attachment. ξ: configuration not given here. C18 diacid = O=C(O)CCCCCCCCCCCCCCCCC(=O)*; ξγGlu = O=C(O)C(CCC(=O)[*:2])N[*:1]; AEEA = NCCOCCOCC(=O)O

How the values were obtained:
[1] = Stability of CNP variants by RP-HPLC, 10 days in PBS; assay type: physicochemical; details: for T0, % (% variant detected at T0): T0 (0 days); for T10, % (% variant detected at T10): T10 (10 days) in PBS, pH 7.4, at 37° C.
[2] = test system: cGMP production in NIH3T3 cells and HEK293 cells; assay: cGMP stimulation assay (CatchPoint Cyclic-GMP Fluorescent Assay); assay type: cell-based; details: peptide at T0, 7-point dose curve 100 nM to 0.0064 nM
[3] = Stability of CNP variants or conjugates in human plasma (LC-MS/MS); assay type: in vitro ADME
Protocol: Stability of different CNP variants or CNP conjugates were tested for stability in human plasma over a 24 hour period. Briefly, a C18 fatty acid was fused to gamma glutamic acid using 2 OEG spacers (see e.g., Lau et al., J. Med. Chem 58:7370-7380, 2015). For the chromatography, Waters UPLC H-Class connected with BEH C18 1.7 um, 2.1×150 mm; Mobile Phase A: 1% DMSO 0.1% Formic Acid in Water; Mobile Phase B: 1% DMSO 0.1% Formic Acid in CAN. Mass Spectrometry was carried out using an AB Sciex QTRAP.
each CNP variant was prepared at 200 nM in Human Plasma Li Heparin and samples Incubated at 37° C. 5% CO2. The reaction was quenched at 0, 1, 2, 4, 8, 24 hours with 0.5M Sodium Citrate pH 4. Plasma proteins were precipitated with 0.2% Formic Acid in MeOH and samples prepared using WCX 96-well uElution plate and analyzed by LC-MS/MS 6500.
Stability of different conjugates was also analyzed at varying conditions. Briefly, the same protocol as above was used at 37° C. (control), 37° C.+0.5M NaCl, 37° C.+protease inhibitors or 4° C.

[4] = test system: NPR2+/− rat chondrosarcoma cell model (heterozygous NPR2 knockout cells); assay: cGMP stimulation assay in NPR2 mutant RCS cells; assay type: cell-based
Protocol: To determine the effects of CNP on subjects with short stature resulting from NPR2 mutations, cellular models of NPR2 mutations were developed. […] Rat chondrosarcoma (RCS) cells having either a knockout of, or heterozygous loss of function mutations in, the NPR2 gene were made by RNP transfection into RCS cells using 125 ng NPR2 variants or wild-type NPR2 plasmid DNA transfected into RCS or HEK293 cells. Single cell clones were seeded and genotyped by Sanger sequencing.
The NPR2 clones were created by creating insertions and deletions in the first exon of NPR2 in RCS cells. […] NPR2 mutant cells were tested for activity in response to CNP administration by a cGMP stimulation assay using a Catch Point Cyclic-GMP Fluorescent Assay after treatment with 6 nM of Pro-Gly CNP37. RCS (rat chondrosarcoma) cells were seeded at 40,000 cells/well in RCS culture media: DMEM+10% FBS+1× Pen Strep.

[5] = test system: mice deficient in Nf1 in type II collagen producing cells; details: daily injections; cited from earlier work
[6] = test system: mouse model of Cardiofaciocutaneous syndrome using a Braf mutation (p.Q241R); details: in vivo; cited from earlier work

| Compound | T0, % (% variant detected at T0) [1] [%] | T10, % (% variant detected at T10) [1] [%] | other results |
| --- | --- | --- | --- |
| CC[C@H](C)[C@@H]1NC(=O)[C@H](CCCNC(=N)N)NC(=O)[C@H](CC(=O)O)NC(=O)[C@H](CC(C)C)NC(=O)[C@H](CCCCN)NC(=O)[C@H](CC(C)C)NC(=O)CNC(=O)[C@H](Cc2ccccc2)NC(=O)[C@@H](NC(=O)CNC(=O)[C@H](CCCCN)NC(=O)[C@H](CO)NC(=O)[C@H](CC(C)C)NC(=O)CNC(=O)[C@H](CCCCN)NC(=O)[C@H](CCCCN)NC(=O)[C@H](CC(N)=O)NC(=O)[C@H](C)NC(=O)CNC(=O)[C@H](CCCCN)NC(=O)[C@H](Cc2ccc(O)cc2)NC(=O)[C@H](CCCCN)NC(=O)[C@H](CCCNC(=N)N)NC(=O)[C@H](C)NC(=O)[C@H](CC(N)=O)NC(=O)[C@@H]2CCCN2C(=O)[C@H](Cc2c[nH]cn2)NC(=O)[C@H](CCC(=O)O)NC(=O)[C@H](CCC(N)=O)NC(=O)CNC(=O)[C@@H]2CCCN2)CSSC[C@@H](C(=O)O)NC(=O)CNC(=O)[C@H](CC(C)C)NC(=O)CNC(=O)[C@H](CO)NC(=O)[C@H](CCSC)NC(=O)[C@H](CO)NC(=O)CNC1=O [Pro-Gly CNP37] | 76.7 | 39.5 | EC50 [2]: 1.7 nM; stability in human plasma at varying conditions ([3]; 37° C. (control), 37° C.+0.5M NaCl, 37° C.+protease inhibitors or 4° C. (FIG. 3)): greater stability compared to other variants; proteolysis in human plasma ([3]; human plasma, varying conditions (FIG. 3)): prone to proteolysis; cGMP readout ([4]; NPR2+/− rat chondrosarcoma cells, 6 nM of peptide (FIG. 4)): rescues cGMP readout |
| CC[C@H](C)[C@@H]1NC(=O)[C@H](CCCNC(=N)N)NC(=O)[C@H](CC(=O)O)NC(=O)[C@H](CC(C)C)NC(=O)[C@H](CCCCNC(=O)COCCOCCNC(=O)COCCOCCNC(=O)CCC(NC(=O)CCCCCCCCCCCCCCCCC(=O)O)C(=O)O)NC(=O)[C@H](CC(C)C)NC(=O)CNC(=O)[C@H](Cc2ccccc2)NC(=O)[C@@H](NC(=O)CNC(=O)[C@H](CCCNC(=N)N)NC(=O)[C@H](CO)NC(=O)[C@H](CC(C)C)NC(=O)CNC(=O)[C@H](CCCNC(=N)N)NC(=O)[C@H](CCCNC(=N)N)NC(=O)[C@H](CCC(N)=O)NC(=O)[C@H](C)NC(=O)CNC(=O)[C@H](CCCNC(=N)N)NC(=O)[C@H](Cc2ccc(O)cc2)NC(=O)[C@H](CCCNC(=N)N)NC(=O)[C@H](CCCNC(=N)N)NC(=O)[C@H](C)NC(=O)[C@H](CCC(N)=O)NC(=O)[C@@H]2CCCN2C(=O)[C@H](Cc2c[nH]cn2)NC(=O)[C@H](CCC(=O)O)NC(=O)[C@H](CCC(N)=O)NC(=O)CNC(=O)[C@@H]2CCCN2C(C)=O)CSSC[C@@H](C(=O)O)NC(=O)CNC(=O)[C@H](CC(C)C)NC(=O)CNC(=O)[C@H](CO)NC(=O)[C@H](CCSC)NC(=O)[C@H](CO)NC(=O)CNC1=O (stereo partly drawn) [lipidated conjugate] (Ac-PGQEHPQARRYRGAQRRGLSRGCFGLK([AEEA-AEEA-ξγGlu-C18 diacid])LDRIGSMSGLGC-OH; disulfide 23-39) | – | – | stability in plasma ([3]; human plasma, 200 nM, 37° C., over 24 hrs (FIG. 2)): improved stability in plasma compared to PEGylated or non-conjugated peptides |
| C-type natriuretic peptide [CNP] | – | – | rescue of NPR2 signaling ([4]; cell model of NPR2 haploinsufficiency, exogenous CNP): dose-dependent rescue; ERK phosphorylation [5]: decreased ERK phosphorylation; short stature [5]: corrected the short stature; body length [6]: increases in body length |
| PGQEHPNARKYKGANKKGLSKGCFGLKLDRIGSMSGLGC [CNP-5] | 83 | 47 | – |
| PGQEHPNARRYRGANRRGLSRGCFGLKLDRIGSMSGLGC [CNP-6] | 90 | 58 | – |
| PGQEHPNARRYRGANRRGLSRGCFGLKLDRIGSMSGLGC [CNP-7] | 77 | 53 | – |
| PGQEHPQARRYRGAQRRGLSRGCFGLKLDRIGSMSGLGC [CNP-8] | 91 | 88 | – |
| PGQEHPQARRYRGAQRRGLSRGCFGLKLDRIGSMSGLGC [CNP-9] | 92 | 77 | – |
